Key:
[1] = target: Integrase (Human immunodeficiency virus 1); assay: Inhibitory concentration against human immuno deficiency virus type 1 integrase (3'-processing)
[2] = target: Integrase (Human immunodeficiency virus 1); assay: Inhibitory concentration against human immuno deficiency virus type 1 integrase (Strand Transfer)

COc1ccc(/C=C2\SC(=S)N(CCC(=O)Nc3cccc(C(=O)O)c3)C2=O)cc1
IC50 [1]: > 100 µM | IC50 [2]: > 100 µM

COc1cc(/C=C2/SC(=S)N(CCC(=O)Nc3ccc(C(=O)O)cc3)C2=O)cc(OC)c1OC
IC50 [1]: 97 µM | IC50 [2]: 85 µM

CCOc1ccc(/C=C2\SC(=S)N(CCC(=O)Nc3cccc(C(=O)O)c3)C2=O)cc1
IC50 [1]: 93 µM | IC50 [2]: > 100 µM

COc1cc(C(=O)Nc2ccc(O)c(C(=O)O)c2)cc(OC)c1OC [2-Hydroxy-5-(3,4,5-trimethoxy-benzoylamino)-benzoic acid]
IC50 [1]: > 100 µM | IC50 [2]: > 100 µM

O=C(CCN1C(=O)/C(=C/c2cccs2)SC1=S)Nc1ccc(O)c(C(=O)O)c1 [2-Hydroxy-5-(3-{4-oxo-5-[1-thiophen-2-yl-meth-(Z)-ylidene]-2-thioxo-thiazolidin-3-yl}-propionylamino)-benzoic acid]
IC50 [1]: 38 µM | IC50 [2]: 38 µM

CC(/C=C1\SC(=S)N(CCC(=O)Nc2ccc(O)c(C(=O)O)c2)C1=O)=C\c1ccccc1 [2-Hydroxy-5-(3-{5-[(E)-2-methyl-3-phenyl-prop-2-en-(Z)-ylidene]-4-oxo-2-thioxo-thiazolidin-3-yl}-propionylamino)-benzoic acid]
IC50 [1]: 36 µM | IC50 [2]: 23 µM

O=C(CCCN1C(=O)/C(=C\c2cccs2)SC1=S)Nc1ccc(O)c(C(=O)O)c1 [2-Hydroxy-5-(4-{4-oxo-5-[1-thiophen-2-yl-meth-(Z)-ylidene]-2-thioxo-thiazolidin-3-yl}-butyrylamino)-benzoic acid]
IC50 [1]: 44 µM | IC50 [2]: 35 µM

O=C(CN1C(=O)/C(=C/c2ccccc2Cl)SC1=S)Nc1ccc([N+](=O)[O-])cc1O [2-{5-[1-(2-Chloro-phenyl)-meth-(Z)-ylidene]-4-oxo-2-thioxo-thiazolidin-3-yl}-N-(2-hydroxy-4-nitro-phenyl)-acetamide]
IC50 [1]: > 100 µM | IC50 [2]: > 100 µM

O=C(CN1C(=O)/C(=C/c2ccccc2Cl)SC1=S)Nc1cc([N+](=O)[O-])ccc1O [2-{5-[1-(2-Chloro-phenyl)-meth-(Z)-ylidene]-4-oxo-2-thioxo-thiazolidin-3-yl}-N-(2-hydroxy-5-nitro-phenyl)-acetamide]
IC50 [1]: 20 µM | IC50 [2]: 18 µM

Cc1ccc(/C=C2/SC(=S)N(CC(=O)Nc3cccc(C(=O)O)c3)C2=O)cc1 [3-(2-{4-Oxo-2-thioxo-5-[1-p-tolyl-meth-(Z)-ylidene]-thiazolidin-3-yl}-acetylamino)-benzoic acid]
IC50 [1]: 98 µM | IC50 [2]: > 100 µM

CCc1ccc(/C=C2/SC(=S)N(CC(=O)Nc3cccc(C(=O)O)c3)C2=O)cc1 [3-(2-{5-[1-(4-Ethyl-phenyl)-meth-(Z)-ylidene]-4-oxo-2-thioxo-thiazolidin-3-yl}-acetylamino)-benzoic acid]
IC50 [1]: > 100 µM | IC50 [2]: > 100 µM

Cc1ccc(/C=C2\SC(=S)N(CCC(=O)Nc3cccc(C(=O)O)c3)C2=O)cc1 [3-(3-{4-Oxo-2-thioxo-5-[1-p-tolyl-meth-(Z)-ylidene]-thiazolidin-3-yl}-propionylamino)-benzoic acid]
IC50 [1]: 100 µM | IC50 [2]: > 100 µM

O=C1/C(=C/c2c(NCCO)nc3ccccn3c2=O)SC(=S)N1Cc1ccco1 [3-[3-Furan-2-ylmethyl-4-oxo-2-thioxo-thiazolidin-(5E)-ylidenemethyl]-2-(2-hydroxy-ethylamino)-pyrido[1,2-a]pyrimidin-4-one]
IC50 [1]: > 100 µM | IC50 [2]: 100 µM

Cc1ccc(/C=C2\SC(=S)N(CCC(=O)Nc3ccc(S(=O)(=O)Nc4nccs4)cc3)C2=O)cc1 [3-{4-Oxo-2-thioxo-5-[1-p-tolyl-meth-(Z)-ylidene]-thiazolidin-3-yl}-N-[4-(thiazol-2-ylsulfamoyl)-phenyl]-propionamide]
IC50 [1]: 83 µM | IC50 [2]: 44 µM

O=C(CCN1C(=O)/C(=C/c2ccccc2Cl)SC1=S)Nc1ccc([N+](=O)[O-])cc1 [3-{5-[1-(2-Chloro-phenyl)-meth-(Z)-ylidene]-4-oxo-2-thioxo-thiazolidin-3-yl}-N-(4-nitro-phenyl)-propionamide]
IC50 [1]: > 100 µM | IC50 [2]: > 100 µM

CCOC(=O)N1CCN(C(=O)CCN2C(=O)/C(=C/c3ccc(OC)c(OC)c3)SC2=S)CC1 [4-(3-{5-[1-(3,4-Dimethoxy-phenyl)-meth-(Z)-ylidene]-4-oxo-2-thioxo-thiazolidin-3-yl}-propionyl)-piperazine-1-carboxylic acid ethyl ester]
IC50 [1]: > 100 µM | IC50 [2]: > 100 µM

COc1ccc(/C=C2/SC(=S)N(CCC(=O)Nc3ccc(C(=O)O)c(O)c3)C2=O)cc1OC [4-(3-{5-[1-(3,4-Dimethoxy-phenyl)-meth-(Z)-ylidene]-4-oxo-2-thioxo-thiazolidin-3-yl}-propionylamino)-2-hydroxy-benzoic acid]
IC50 [1]: 61 µM | IC50 [2]: 17 µM

O=C(CCN1C(=O)/C(=C/c2ccc3c(c2)OCO3)SC1=S)Nc1ccc(C(=O)O)c(O)c1 [4-(3-{5-[1-Benzo[1,3]dioxol-5-yl-meth-(Z)-ylidene]-4-oxo-2-thioxo-thiazolidin-3-yl}-propionylamino)-2-hydroxy-benzoic acid]
IC50 [1]: 33 µM | IC50 [2]: 23 µM

O=C(CN1C(=O)/C(=C2\SC(=S)N(CC(=O)Nc3ccc(C(=O)O)cc3)C2=O)SC1=S)Nc1ccc(C(=O)O)cc1 [4-{5-[3-(4-carboxyphenylcarbamoylmethyl)-4-oxo-2-thioxo-1,3-thiazolan-5-yliden]-4-oxo-2-thioxo-1,3-thiazolan-3-ylmethylcarboxamido}benzoic acid]
IC50 [1]: 59 µM | IC50 [2]: 75 µM

O=C(NC(=S)Nc1ccc(O)c(C(=O)O)c1)c1ccccc1 [5-(3-Benzoyl-thioureido)-2-hydroxy-benzoic acid]
IC50 [1]: > 100 µM | IC50 [2]: > 100 µM

CCc1ccc(/C=C2\SC(=S)N(CCC(=O)Nc3ccc(O)c(C(=O)O)c3)C2=O)cc1 [5-(3-{5-[1-(4-Ethyl-phenyl)-meth-(Z)-ylidene]-4-oxo-2-thioxo-thiazolidin-3-yl}-propionylamino)-2-hydroxy-benzoic acid]
IC50 [1]: 15 µM | IC50 [2]: 11 µM

O=C(CCN1C(=O)/C(=C/c2ccc3c(c2)OCO3)SC1=S)Nc1ccc(O)c(C(=O)O)c1 [5-(3-{5-[1-Benzo[1,3]dioxol-5-yl-meth-(Z)-ylidene]-4-oxo-2-thioxo-thiazolidin-3-yl}-propionylamino)-2-hydroxy-benzoic acid]
IC50 [1]: 15 µM | IC50 [2]: 17 µM

O=C1/C(=C/c2ccc(O)cc2O)SC(=S)N1c1ccccc1 [5-[1-(2,4-Dihydroxy-phenyl)-meth-(Z)-ylidene]-3-phenyl-2-thioxo-thiazolidin-4-one]
IC50 [1]: > 100 µM | IC50 [2]: > 100 µM

O=C(O)c1ccc(S(=O)(=O)c2ccc3c(c2)C(=O)N(c2ccc(O)c(C(=O)O)c2)C3=O)cc1 [5-[5-(4-Carboxy-benzenesulfonyl)-1,3-dioxo-1,3-dihydro-isoindol-2-yl]-2-hydroxy-benzoic acid]
IC50 [1]: 66 µM | IC50 [2]: 44 µM

Cc1ccc2nc(C(C#N)=Cc3ccc(-c4ccc(O)c(C(=O)O)c4)o3)[nH]c2c1 [5-{5-[(E)-2-Cyano-2-(5-methyl-1H-benzoimidazol-2-yl)-vinyl]-furan-2-yl}-2-hydroxy-benzoic acid]
IC50 [1]: 16 µM | IC50 [2]: 8 µM

Cc1ccc(/C=C2\SC(=S)N(CC(=O)Nc3ccc([N+](=O)[O-])cc3O)C2=O)cc1 [N-(2-Hydroxy-4-nitro-phenyl)-2-{4-oxo-2-thioxo-5-[1-p-tolyl-meth-(Z)-ylidene]-thiazolidin-3-yl}-acetamide]
IC50 [1]: > 100 µM | IC50 [2]: > 100 µM

Cc1ccc(/C=C2\SC(=S)N(CC(=O)Nc3cc([N+](=O)[O-])ccc3O)C2=O)cc1 [N-(2-Hydroxy-5-nitro-phenyl)-2-{4-oxo-2-thioxo-5-[1-p-tolyl-meth-(Z)-ylidene]-thiazolidin-3-yl}-acetamide]
IC50 [1]: 84 µM | IC50 [2]: 80 µM

O=C(CCN1C(=O)/C(=C/c2cccs2)SC1=S)Nc1cccc(O)c1 [N-(3-Hydroxy-phenyl)-3-{4-oxo-5-[1-thiophen-2-yl-meth-(Z)-ylidene]-2-thioxo-thiazolidin-3-yl}-propionamide]
IC50 [1]: > 100 µM | IC50 [2]: > 100 µM

O=C(CN1C(=O)/C(=C2\SC(=S)N(CC(=O)Nc3ccc(O)cc3)C2=O)SC1=S)Nc1ccc(O)cc1 [N-(4-Hydroxy-phenyl)-2-{(E)-3''-[(4-hydroxy-phenylcarbamoyl)-methyl]-4,4''-dioxo-2,2''-dithioxo-[5,5'']bithiazolidinyliden-3-yl}-acetamide]
IC50 [1]: 59 µM | IC50 [2]: 69 µM

COc1ccccc1/C=C1/SC(=S)N(CCC(=O)Nc2ccc(O)cc2)C1=O [N-(4-Hydroxy-phenyl)-3-{5-[1-(2-methoxy-phenyl)-meth-(E)-ylidene]-4-oxo-2-thioxo-thiazolidin-3-yl}-propionamide]
IC50 [1]: 99 µM | IC50 [2]: 100 µM

COc1cc(/C=C2\SC(=S)N(CC(=O)Nc3cc(Cl)ccc3O)C2=O)cc(OC)c1OC [N-(5-Chloro-2-hydroxy-phenyl)-2-{4-oxo-2-thioxo-5-[1-(3,4,5-trimethoxy-phenyl)-meth-(Z)-ylidene]-thiazolidin-3-yl}-acetamide]
IC50 [1]: 32 µM | IC50 [2]: 17 µM

O=C(CCN1C(=O)/C(=C/c2ccc3c(c2)OCO3)SC1=S)Nc1ccc2c(c1)OCO2 [N-Benzo[1,3]dioxol-5-yl-3-{5-[1-benzo[1,3]dioxol-5-yl-meth-(Z)-ylidene]-4-oxo-2-thioxo-thiazolidin-3-yl}-propionamide]
IC50 [1]: 97 µM | IC50 [2]: 93 µM

O=C(CCN1C(=O)/C(=C/c2cccs2)SC1=S)Nc1ccc2ccccc2c1 [N-Naphthalen-2-yl-3-{4-oxo-5-[1-thiophen-2-yl-meth-(Z)-ylidene]-2-thioxo-thiazolidin-3-yl}-propionamide]
IC50 [1]: > 100 µM | IC50 [2]: > 100 µM

CCOc1cc(C=C2SC(=S)N(NC(=O)c3ccccc3O)C2=O)ccc1O [N-{5-[1-(3-Ethoxy-4-hydroxy-phenyl)-meth-(Z)-ylidene]-4-oxo-2-thioxo-thiazolidin-3-yl}-2-hydroxy-benzamide]
IC50 [1]: 70 µM | IC50 [2]: 38 µM

O=C(NN1C(=O)C(=Cc2ccc(Br)cc2)SC1=S)c1ccccc1O [N-{5-[1-(4-Bromo-phenyl)-meth-(Z)-ylidene]-4-oxo-2-thioxo-thiazolidin-3-yl}-2-hydroxy-benzamide]
IC50 [1]: 52 µM | IC50 [2]: 27 µM
